Results as given in ChEMBL document CHEMBL3390836, “Mannich- and LedererManasse-based analogues of the natural product S-(+)-curcuphenol as cancer proliferation and migration inhibitors” (Medchemcomm, 2012).

How the values were obtained:
Assay type in all cases: functional
[1] = Cytotoxicity against human NCI-ADR-RES cells assessed as cell growth at 10^-4 M after 48 hrs by SRB assay relative to control; settings: read-out: Activity
[2] = system: Malme-3M; experiment: Cytotoxicity against human MALME-3M cells assessed as cell growth at 10^-8 M after 48 hrs by SRB assay relative to control; settings: read-out: Activity
[3] = system: K562; experiment: Cytotoxicity against human K562 cells after 48 hrs by SRB assay; settings: K562, 48 h; for CC50: read-out: LC50 (the source's name)
[4] = system: SK-MEL-28; experiment: Cytotoxicity against human SK-MEL-28 cells assessed as cell growth at 10^-8 M after 48 hrs by SRB assay relative to control; settings: SK-MEL-28, 48 h, read-out: Activity
[5] = Cytotoxicity against human HCT116 cells after 48 hrs by SRB assay; settings: HCT-116, 48 h; for CC50: read-out: LC50 (the source's name)
[6] = system: DU-145; experiment: Cytotoxicity against human DU145 cells assessed as cell growth at 10^-7 M after 48 hrs by SRB assay relative to control; settings: DU-145, 48 h, read-out: Activity
[7] = system: TK-10; experiment: Cytotoxicity against human TK10 cells assessed as cell growth at 10^-8 M after 48 hrs by SRB assay relative to control; settings: TK-10, 48 h, read-out: Activity
[8] = system: K562; experiment: Cytotoxicity against human K562 cells assessed as cell growth at 10^-8 M after 48 hrs by SRB assay relative to control; settings: K562, 48 h, read-out: Activity
[9] = system: MCF7; experiment: Cytotoxicity against human MCF7 cells assessed as cell growth at 10^-8 M after 48 hrs by SRB assay relative to control; settings: MCF7, 48 h, read-out: Activity
[10] = Cytotoxicity against human EKVX cells assessed as cell growth at 10^-6 M after 48 hrs by SRB assay relative to control; settings: read-out: Activity
[11] = system: CAKI-1; experiment: Cytotoxicity against human Caki1 cells after 48 hrs by SRB assay; settings: CAKI-1, 48 h; for CC50: read-out: LC50 (the source's name)
[12] = system: HT-29; experiment: Cytotoxicity against human HT-29 cells assessed as cell growth at 10^-8 M after 48 hrs by SRB assay relative to control; settings: HT-29, 48 h, read-out: Activity
[13] = system: COLO 205; experiment: Cytotoxicity against human COLO205 cells assessed as cell growth at 10^-7 M after 48 hrs by SRB assay relative to control; settings: COLO 205, 48 h, read-out: Activity
[14] = system: A498; experiment: Cytotoxicity against human A498 cells assessed as cell growth at 10^-7 M after 48 hrs by SRB assay relative to control; settings: A498, 48 h, read-out: Activity
[15] = system: SK-MEL-28; experiment: Cytotoxicity against human SK-MEL-28 cells assessed as cell growth at 10^-7 M after 48 hrs by SRB assay relative to control; settings: SK-MEL-28, 48 h, read-out: Activity
[16] = system: IGROV-1; experiment: Cytotoxicity against human IGROV1 cells assessed as cell growth at 10^-6 M after 48 hrs by SRB assay relative to control; settings: IGROV-1, 48 h, read-out: Activity
[17] = system: ACHN; experiment: Cytotoxicity against human ACHN cells assessed as cell growth at 10^-4 M after 48 hrs by SRB assay relative to control; settings: read-out: Activity
[18] = system: TK-10; experiment: Cytotoxicity against human TK10 cells assessed as cell growth at 10^-4 M after 48 hrs by SRB assay relative to control; settings: TK-10, 48 h, read-out: Activity
[19] = system: KM12; experiment: Cytotoxicity against human KM12 cells assessed as cell growth at 10^-8 M after 48 hrs by SRB assay relative to control; settings: KM12, 48 h, read-out: Activity
[20] = Cytotoxicity against human UACC62 cells assessed as cell growth at 10^-6 M after 48 hrs by SRB assay relative to control; settings: UACC-62, 48 h, read-out: Activity
[21] = system: U-251; experiment: Cytotoxicity against human U251 cells assessed as cell growth at 10^-6 M after 48 hrs by SRB assay relative to control; settings: U-251, 48 h, read-out: Activity
[22] = system: HCC 2998; experiment: Cytotoxicity against human HCC2998 cells assessed as cell growth at 10^-7 M after 48 hrs by SRB assay relative to control; settings: HCC 2998, 48 h, read-out: Activity
[23] = system: 786-0; experiment: Cytotoxicity against human 786-0 cells assessed as cell growth at 10^-6 M after 48 hrs by SRB assay relative to control; settings: 786-0, 48 h, read-out: Activity
[24] = system: SK-MEL-28; experiment: Cytotoxicity against human SK-MEL-28 cells assessed as cell growth at 10^-4 M after 48 hrs by SRB assay relative to control; settings: SK-MEL-28, 48 h, read-out: Activity
[25] = system: MDA-MB-435; experiment: Cytotoxicity against human MDA-MB-435 cells assessed as cell growth at 10^-4 M after 48 hrs by SRB assay relative to control; settings: MDA-MB-435, 48 h, read-out: Activity
[26] = system: NCI-H23; experiment: Cytotoxicity against human NCI-H23 cells assessed as cell growth at 10^-7 M after 48 hrs by SRB assay relative to control; settings: NCI-H23, 48 h, read-out: Activity
[27] = system: NCI-H322M; experiment: Cytotoxicity against human NCI-H322M cells after 48 hrs by SRB assay
[28] = Cytotoxicity against human PC3 cells after 48 hrs by SRB assay; settings: PC-3, 48 h
[29] = system: SN12C; experiment: Cytotoxicity against human SN12C cells assessed as cell growth at 10^-8 M after 48 hrs by SRB assay relative to control; settings: read-out: Activity
[30] = system: SNB-75; experiment: Cytotoxicity against human SNB75 cells assessed as cell growth at 10^-7 M after 48 hrs by SRB assay relative to control; settings: SNB-75, 48 h, read-out: Activity
[31] = system: MDA-MB-468; experiment: Cytotoxicity against human MDA-MB-468 cells assessed as cell growth at 10^-7 M after 48 hrs by SRB assay relative to control; settings: MDA-MB-468, 48 h, read-out: Activity
[32] = Cytotoxicity against human HCT116 cells assessed as cell growth at 10^-4 M after 48 hrs by SRB assay relative to control; settings: HCT-116, 48 h, read-out: Activity
[33] = system: NCI-H226; experiment: Cytotoxicity against human NCI-H226 cells assessed as cell growth at 10^-4 M after 48 hrs by SRB assay relative to control; settings: NCI-H226, 48 h, read-out: Activity
[34] = system: SF-295; experiment: Cytotoxicity against human SF295 cells assessed as cell growth at 10^-7 M after 48 hrs by SRB assay relative to control; settings: SF-295, 48 h, read-out: Activity
[35] = Cytotoxicity against human UO31 cells after 48 hrs by SRB assay; settings: UO-31, 48 h
[36] = Cytotoxicity against human OVCAR3 cells assessed as cell growth at 10^-4 M after 48 hrs by SRB assay relative to control; settings: OVCAR-3, 48 h, read-out: Activity

CC(C)=CCC[C@H](C)c1ccc(C)c2c1OCN(CC1CCNCC1)C2
growth at 100 µM [1]: -73%
growth at 0.01 µM [2]: 92%
GI50 [3]: 2680 nM
TGI [3]: 8.44 µM
CC50 [3]: 97.7 µM
growth at 0.01 µM [4]: 107%
GI50 [5]: 7.17 µM
TGI [5]: 21.7 µM
CC50 [5]: 56.3 µM
growth at 0.1 µM [6]: 94%
growth at 0.01 µM [7]: 118%
growth at 0.01 µM [8]: 97%
growth at 0.01 µM [9]: 98%
growth at 1 µM [10]: 94%
GI50 [11]: 17.7 µM
TGI [11]: 36.8 µM
CC50 [11]: 76.3 µM
growth at 0.01 µM [12]: 102%
growth at 0.1 µM [13]: 108%
growth at 0.1 µM [14]: 82%
growth at 0.1 µM [15]: 101%
growth at 1 µM [16]: 106%
growth at 100 µM [17]: -89%
growth at 100 µM [18]: -87%
growth at 0.01 µM [19]: 99%
growth at 1 µM [20]: 101%
growth at 1 µM [21]: 100%
growth at 0.1 µM [22]: 105%
growth at 1 µM [23]: 99%
growth at 100 µM [24]: -98%
growth at 100 µM [25]: -83%
growth at 0.1 µM [26]: 94%
GI50 [27]: 19.4 µM
LC50 [27]: 77.8 µM
TGI [27]: 38.8 µM
GI50 [28]: 16.5 µM
LC50 [28]: > 100 µM
TGI [28]: 42.1 µM
growth at 0.01 µM [29]: 97%
growth at 0.1 µM [30]: 85%
growth at 0.1 µM [31]: 94%
growth at 100 µM [32]: -80%
growth at 100 µM [33]: -84%
growth at 0.1 µM [34]: 94%
GI50 [35]: 12.8 µM
LC50 [35]: 58.2 µM
TGI [35]: 27.3 µM
growth at 100 µM [36]: -84%

CC(C)=CCC[C@H](C)c1ccc(C)c(CNCC2CCNCC2)c1O
growth at 100 µM [1]: 46%
growth at 0.01 µM [2]: 97%
GI50 [3]: 1010 nM
TGI [3]: 4.86 µM
CC50 [3]: 19.9 µM
growth at 0.01 µM [4]: 102%
GI50 [5]: 5.08 µM
TGI [5]: 12.4 µM
CC50 [5]: > 25 µM
growth at 0.1 µM [6]: 96%
growth at 0.01 µM [7]: 92%
growth at 0.01 µM [8]: 103%
growth at 0.01 µM [9]: 90%
growth at 1 µM [10]: 92%
GI50 [11]: 4.62 µM
TGI [11]: 13.4 µM
CC50 [11]: > 25 µM
growth at 0.01 µM [12]: 108%
growth at 0.1 µM [13]: 101%
growth at 0.1 µM [14]: 74%
growth at 0.1 µM [15]: 100%
growth at 1 µM [16]: 98%
growth at 100 µM [17]: -34%
growth at 100 µM [18]: -15%
growth at 0.01 µM [19]: 97%
growth at 1 µM [20]: 86%
growth at 1 µM [21]: 94%
growth at 0.1 µM [22]: 95%
growth at 1 µM [23]: 85%
growth at 100 µM [24]: -91%
growth at 100 µM [25]: -66%
growth at 0.1 µM [26]: 94%
GI50 [27]: 7.02 µM
LC50 [27]: > 25 µM
TGI [27]: > 25 µM
GI50 [28]: 6.88 µM
LC50 [28]: > 25 µM
TGI [28]: > 25 µM
growth at 0.01 µM [29]: 92%
growth at 0.1 µM [30]: 90%
growth at 0.1 µM [31]: 77%
growth at 100 µM [32]: -39%
growth at 100 µM [33]: 37%
growth at 0.1 µM [34]: 91%
GI50 [35]: 3.58 µM
LC50 [35]: > 25 µM
TGI [35]: 12.3 µM
growth at 100 µM [36]: 3%
